Assay results from patent US20200164005A1, “PHARMACEUTICAL COMPOSITIONS OF A BILE ACID DERIVATIVE AND MICROBIOME AND USES THEREOF” (Intercept Pharmaceuticals, Inc., priority 2017, published 2020).

Columns and labels:
[1] = test system: endogenous bile acids; experiment: Luminal bile acid concentrations in small intestine and feces of OCA-treated mice; assay type: in vivo
Method: FIG. 54: Bar graphs showing the concentration of taurocholic acid and taurodeoxycholic acid at proximal small bowel and distal small bowel, or in feces, in samples collected from mice treated with control (methylcellulose) or OCA (10 mg/kg/day) for 14 days, followed by no treatment for additional 14 days. Statistically significant differences based on two-tailed Student t-tests are noted: p<0.05 (*) and p<0.01 (**).
FIGS. 59A-59E: Effect of OCA administration on luminal bile acid concentrations in the murine small intestine and feces. […] Mean+SE, *p<0.05, **p<0.01, ***p<0.001. FIGS. 59D-59E show heatmaps of luminal bile acid concentrations in the proximal (FIG. 59D) and distal (FIG. 59E) small intestine.
For example, Streptococci represent as much as 20% of the human small intestinal microbiota by 16S tagged sequencing (Dlugosz et al., Sci Rep-Uk, 5 (2015)); El Aidy et al., Curr Opin Biotechnol., 32, 14-20 (2015)). Some of these bacteria are environmental organisms used in the manufacturing of food introduced into the small intestine with diet, including Streptococcus thermophilus, Bifidobacterium breve, Lactobacillus casei, and Lactococcus lactis (Brigidi et al., International Journal of Food Microbiology, 81, 203-209 (2003); Derrien and van Hylckama Vlieg, Trends Microbiol., 23, 354-366 (2015); Stiles and Holzapfel, International Journal of Food Microbiology, 36, 1-29 (1997)). To determine whether OCA treatment can alter the gut microbiota composition specifically in the small intestine, mice were treated with OCA for 14 days, the microbiota composition in the proximal and distal small intestine, as well as the stool, and quantified bile acids were characterized. Since OCA was prepared in methylcellulose, an additional methylcellulose control group was included due to its previously described effect on fecal bile acid levels (Cox et al., FASEB J 27, 692-702 (2013)).

[2] = 10 mg/day dose; cited from earlier work
[3] = test system: bacterial strains found in the human small intestine; experiment: Inhibition of bacterial growth by bile acids, microbroth dilution, optical density at 630 nm; assay type: cell-based
Method: The toxicity of several bile acids to various gut microbiome species was examined. Representative species were exposed to different bile acids at a range of concentrations under either aerobic or anaerobic condition, and the growth of the species at these concentrations was measured by determining the optical density of the culture.
Lactobacillus casei CP was purchased from Custom Probiotics Inc. (Glendale, Calif.) as L. casei Custom Probiotic Powder (strain confirmed by Sanger sequencing of the 16S gene). Pediococcus pentosaceus KE-99 was purchased from Probiohealth (Beverly Hills, Calif.) as KE-99 LACTO Tablet (strain confirmed by Sanger sequencing of the 16S gene). L. casei 393, Streptoccocus thermophilus LMD-9, Akkermansia muciniphila Muc, and Veillonella parvula Te3 were purchased from the American Type Culture Collection (ATCC, Manassas, Va.). Lactococcus lactis NZ9000 was purchased from BOCA Scientific (Boca Raton, Fla.). Escherichia coli Nissle was obtained from Dr. Mark Goulian (University of Pennsylvania, Philadelphia, Pa.).
L. casei, P. pentasaceus, and L. lactis were grown in de Man, Rogosa, and Sharpe (MRS) medium (Anaerobe Systems, Morgan Hill, Calif.); E. coli was grown in lysogeny broth (LB) medium (Fisher Scientific, USA); S. thermophilus and A. muciniphila were grown in brain heart infusion (BHI) medium (Fisher Scientific, USA and Anaerobe Systems, Morgan Hill, Calif.), and; V. parvula was grown in reinforced clostridial medium (Fisher Scientific, USA). Aerobic cultures were incubated at 37° C.; anaerobic cultures were incubated at 37° C. in an anaerobic glove box (Coy Laboratories, Grass Lake, Mich.).
Glycochenodeoxycholic, glycocholic, and taurocholic acids were purchased from Sigma Aldrich (St. Louis, Mo.). Obeticholic acid was provided by Intercept Pharmaceuticals, Inc. (New York, N.Y.).
Inhibition of bacterial growth by bile acids was determined by the microbroth dilution method. Plates were prepared with 100 uL of medium containing the appropriate concentrations of bile acid. Wells were inoculated with 1 uL of an overnight culture, covered, and incubated overnight (3 days for A. muciniphila and V. parvula, which are slow growing organisms). Growth was measured via optical density at 630 nm, and measurements were zeroed against wells containing the appropriate bile acid level with no bacteria. All tests were performed in triplicate. Data is expressed as the percent (%) reduction in growth, which was calculated against controls (i.e., no bile acids). The responses of representative species to different concentrations of bile acids are illustrated by the heat maps shown in FIGS. 53A-53D.

[4] = test system: C4 (7α-hydroxy-4-cholesten-3-one); experiment: Plasma C4 level after OCA and its association with microbiome species (GEE); assay type: in vivo, human
Method: C4 level was measured on 5 mg and 10 mg OCA dose groups. The day 1 pre-dose C4 was used as a match of day 1 microbiome measurement. The average level of C4 from day 4 to day 17 pre-dose was calculated as a match of day 15 or 16 microbiome measurement. The average C4 level on day 30 and day 44 was used as a match of microbiome on day 37. The average of multiple time points was taken to match the three time points of microbiome measurements.
Geeglm(fgf19·log 2˜hour+dose+hour:dose, id=sID, corstr=“exchangeable”) • C4 analysis: The GEE model was applied in association study of C4 and microbiome species. Both C4 and species relative abundance were log 2 transformed before applying GEE model.
Geeglm(species·log 2˜C4·log 2, id=sID, corstr=“exchangeable”)
Twenty-four healthy subjects were randomly assigned to one of three dose groups (5 mg, 10 mg, or 25 mg OCA per day), with each dose group comprising eight subjects (four women and four men). A single oral OCA dose of 5 mg, 10 mg, or 25 mg tablets, depending on the treatment assignment, was administered on Day 1. In the multiple-dose phase, a single oral OCA dose of 5 mg, 10 mg, or 25 mg tablets, in accordance with the assigned treatment, was administered orally once daily for 14 days from Days 4-17. The patients remained at the study site until Day 30, and were followed up until the final visit on Day 44 (FIG. 62A). Fecal specimens were collected at baseline (Day 0), at the end of the multiple-dose phase (Day 17), and at the end of the study (Day 37). Pharmacokinetic blood samples were assessed pre-dose and on Days 1-3, 17, 35, 37, 39, and 44. […] Therefore, plasma C4 levels are a reliable dynamic indicator of the host response to FXR activation by OCA, that leads to the suppression of endogenous bile acid synthesis (Hirschfield et al., Gastroenterology 148, 751-761 e758 (2015); Mudaliar et al., Gastroenterology 145, 574-582 e571 (2013)).

For `CC[C@H]1[C@@H](O)[C@@H]2[C@H](CC[C@]3(C)[C@@H]([C@H](C)CCC(=O)O)CC[C@@H]23)[C@@]2(C)CC[C@@H](O)C[C@@H]12` [OCA, 3α,7α-dihydroxy-6α-ethyl-5β-cholan-24-oic acid], the “OCA in the small intestinal lumen of treated mice” value ([1]; 10 mg/kg OCA, 14 days) was “detectable”, the “contribution of OCA to the total concentration of bile acids in the small intestinal lumen” value ([1]; 10 mg/kg OCA, 14 days) was “contributed minimally” and the “luminal endogenous primary bile acids in the feces” value ([1]; 10 mg/kg OCA, 14 days) was “no effect”. The “luminal endogenous primary bile acids in proximal and distal small intestine” value ([1]; 10 mg/kg OCA, 14 days, greatest in proximal small intestine) was “significant reduction”, the “luminal cholic and taurocholic acids” value ([1]; 10 mg/kg OCA, 14 days, small intestine) was “largest consistent decreases” and the “levels of taurocholic and taurodeoxycholic acids in proximal and distal small intestine” value ([1]; OCA 10 mg/kg/day, day 14) was “reduction”. For the same compound, the “levels of taurocholic and taurodeoxycholic acids in the colon (feces)” value ([1]; OCA 10 mg/kg/day, day 14) was “not in the colon (feces)”, the “levels of taurocholic and taurodeoxycholic acids in the proximal small intestine after cessation” value ([1]; day 28, two weeks after cessation of OCA) was “continued reduction” and the OCA concentration calculated to be reached in the human small intestine [2] was roughly 40 µM. The “effect on growth at calculated physiologic levels of the human small intestine” value ([3]; approximately 12 micromolar, aerobically or anaerobically) was “no effect on any strain tested”, the “effect on growth at high concentrations” value ([3]; high concentrations of OCA) was “growth inhibitory effect on several strains” and the “plasma levels of C4 relative to Day 0 (pre-OCA dose)” value ([4]; Day 16) was “maximally suppressed”. For the same compound, the “plasma levels of C4 at maximal time off OCA” value ([4]; Day 37) was “returned to normal” and the “plasma C4 in response to OCA treatment” value ([4]; serial quantification, repeated measure ANOVA) was “time-dependent reduction”.
